# Where “and” joins values, the source holds several entries; their conditions need not be identical. Identical values can stand only once.
# System: C. elegans
# Details: Table S2, C. elegans SS assay, 110 μM, averages of 4 data points
SMILES,Percentage of motility inhibition 0 h,Percentage of motility inhibition 24 h [%]
C[C@@H]1CC[C@]2(C(=O)O[C@@H]3O[C@H](CO)[C@@H](O)[C@H](O)[C@H]3O)CC[C@]3(C)C(=CC[C@@H]4[C@@]5(C)C[C@@H](O)[C@H](O)[C@@](C)(CO)[C@@H]5CC[C@]43C)[C@@H]2[C@]1(C)O [Niga-ichigoside F1],0%,1
COc1cc2c[n+](C)c3c4cc5c(cc4ccc3c2cc1OC)OCO5.[Cl-] [Nitidine (chloride)],0%,7
NC(=O)c1cc([N+](=O)[O-])cc([N+](=O)[O-])c1 [Nitromide],25%,12
CC(Cc1ccc(O)c(O)c1)C(C)Cc1ccc(O)c(O)c1 (stereo not drawn) [Nordihydroguaiaretic acid],8%,21
Cl.NCC(O)c1ccc(O)c(O)c1 (stereo not drawn) [Norepinephrine (hydrochloride)],23% and 12%,–
CC(C)(O)CCc1c(O)cc(O)c2c(=O)c(O)c(-c3ccc(O)cc3)oc12 [Noricaritin],42%,5
COc1cc2c(cc1O)C[C@@H]1NCCc3cc(OC)c(O)c-2c31 [Norisoboldine],0%,0
OC1C[C@H]2CC[C@@H](C1)N2 (stereo partly drawn) [Nortropine],12%,11
CC(C)=CCC[C@](C)(O[C@@H]1O[C@H](CO[C@@H]2O[C@H](CO)[C@@H](O)[C@H](O)[C@H]2O)[C@@H](O)[C@H](O)[C@H]1O)[C@H]1CC[C@]2(C)[C@@H]1[C@H](O)C[C@@H]1[C@@]3(C)CC[C@H](O[C@@H]4O[C@H](CO)[C@@H](O)[C@H](O)[C@H]4O[C@@H]4O[C@H](CO)[C@@H](O)[C@H](O)[C@H]4O[C@@H]4OC[C@@H](O)[C@H](O)[C@H]4O)C(C)(C)[C@@H]3CC[C@]12C [Notoginsenoside Fa],7%,33
CC(C)=CCC[C@](C)(O[C@@H]1O[C@H](CO[C@@H]2OC[C@@H](O)[C@H](O)[C@H]2O)[C@@H](O)[C@H](O)[C@H]1O)[C@H]1CC[C@]2(C)[C@@H]1[C@H](O)C[C@@H]1[C@@]3(C)CC[C@H](O[C@@H]4O[C@H](CO)[C@@H](O)[C@H](O)[C@H]4O[C@@H]4O[C@H](CO)[C@@H](O)[C@H](O)[C@H]4O[C@@H]4OC[C@@H](O)[C@H](O)[C@H]4O)C(C)(C)[C@@H]3CC[C@]12C [Notoginsenoside Fc],0%,0
CC(C)=CCC[C@@](C)(O)[C@H]1CC[C@]2(C)[C@@H]1[C@H](O)C[C@@H]1[C@@]3(C)CC[C@H](O[C@@H]4O[C@H](CO)[C@@H](O)[C@H](O)[C@H]4O[C@@H]4O[C@H](CO)[C@@H](O)[C@H](O)[C@H]4O[C@@H]4OC[C@@H](O)[C@H](O)[C@H]4O)C(C)(C)[C@@H]3CC[C@]12C [Notoginsenoside Ft1],14%,3
CC(C)=CCC[C@](C)(O[C@@H]1O[C@H](CO)[C@@H](O)[C@H](O)[C@H]1O)[C@H]1CC[C@]2(C)[C@@H]1[C@H](O)C[C@@H]1[C@@]3(C)CC[C@H](O)C(C)(C)[C@@H]3[C@@H](O[C@@H]3O[C@H](CO)[C@@H](O)[C@H](O)[C@H]3O[C@@H]3OC[C@@H](O)[C@H](O)[C@H]3O)C[C@]12C [Notoginsenoside R1],5%,26
CC(C)=CCC[C@](C)(O)[C@H]1CC[C@]2(C)[C@@H]1[C@H](O)C[C@@H]1[C@@]3(C)CC[C@H](O)C(C)(C)[C@@H]3[C@@H](O[C@@H]3O[C@H](CO)[C@@H](O)[C@H](O)[C@H]3O[C@@H]3OC[C@@H](O)[C@H](O)[C@H]3O)C[C@]12C [Notoginsenoside R2],19%,9
CO[C@@H]1[C@@H](OC(N)=O)[C@@H](O)[C@H](Oc2ccc3c([O-])c(NC(=O)c4ccc(O)c(CC=C(C)C)c4)c(=O)oc3c2C)OC1(C)C.[Na+] [Novobiocin (Sodium)],25%,1
CO[C@@H]1[C@@H](OC(N)=O)[C@@H](O)[C@H](Oc2ccc3c([O-])c(NC(=O)c4ccc(O)c(CC=C(C)C)c4)c(=O)oc3c2C)OC1(C)C.[Na+] [Novobiocin (sodium)],6%,6
Cn1cc(C(N)=O)ccc1=O [Nudifloramide],0%,0
CC(=O)NCCc1c[nH]c2ccc(O)cc12 [N‐Acetyl‐5‐hydroxytryptamine],0%,0
"O=C(N[C@@H](c1ccccc1)[C@@H](O)C(=O)O)c1ccccc1 [N‐Benzoyl‐(2R,3S)‐3‐phenylisoserine]",54%,29
CCCCC/C=C\C/C=C\CCCCCCCC(=O)NCc1ccccc1 [N‐Benzyllinoleamide],0%,0

SMILES,Percentage of motility inhibition 0 h,Percentage of motility inhibition 24 h [%]
CC/C=C\C/C=C\C/C=C\CCCCCCCC(=O)NCc1ccccc1 [N‐Benzyllinolenamide],2%,0
CCCCCCCCCCCCCCCCCC(=O)NCc1ccccc1 [N‐Benzyloctadecanamide],35%,17
CCCCCCCCCCCCCCCC(=O)NCc1ccccc1 [N‐Benzylpalmitamide],0%,20
COc1ccc(CCNC(=O)/C=C/c2ccc(O)c(O)c2)cc1 [N‐Caffeoyl O‐methyltyramine],0%,0
COc1cc[nH]c(=O)c1C#N [N‐Demethylricinine],0%,7
COc1ccc2c3c1O[C@H]1C[C@@H](O)C=C[C@@]31CCNC2 [N‐Desmethyl Galanthamine],0%,0
COc1cc(/C=C/C(=O)NCC(O)c2ccc(O)cc2)ccc1O (stereo not drawn) [N‐Feruloyloctopamine],14%,0
COc1cc(/C=C/C(=O)NCCc2c[nH]c3ccc(O)cc23)ccc1O [N‐Feruloylserotonin],11%,18
O=CN1C[C@@H]2C[C@H](C1)c1cccc(=O)n1C2 [N‐Formylcytisine],0%,0
CN1C[C@@H]2C[C@H](C1)c1cccc(=O)n1C2 [N‐Methylcytisine],0%,0
Cn1c(=O)c2c(c3ccccc31)OC(C)(C)C=C2 [N‐Methylflindersine],0%,1
CN1CC(=O)NC1=O [N‐Methylhydantoin],13%,16
COc1cc2c3c(c1OC)-c1ccccc1C[C@H]3[N+](C)(C)CC2 [N‐Methylnuciferine],0%,0
COc1cc2c3c(c1OC)-c1ccccc1C[C@H]3NCC2 [N‐Nornuciferine],13%,0
COc1cc(/C=C/C(=O)NCCc2ccc(O)cc2)ccc1O [N‐trans‐Feruloyltyramine],5%,16
O=C(/C=C/c1ccc(O)c(O)c1)c1ccc(O)c(O)c1O [Okanin],9%,31
CC1(C)CC[C@]2(C(=O)O[C@@H]3O[C@H](CO)[C@@H](O)[C@H](O)[C@H]3O)CC[C@]3(C)C(=CC[C@@H]4[C@@]5(C)CC[C@H](O)C(C)(C)[C@@H]5CC[C@]43C)[C@@H]2C1 [Oleanolic acid 28-O-β-D-glucopyranoside],33%,34
COC(=O)C1=COC(O[C@@H]2O[C@H](CO)[C@@H](O)[C@H](O)[C@H]2O)/C(=C/C(=O)O)C1CC(=O)OCCc1ccc(O)c(O)c1 (stereo partly drawn) [Oleuropeinic acid],0%,8
O=C([O-])c1cc(/N=N/c2ccc(O)c(C(=O)[O-])c2)ccc1O.[Na+].[Na+] [Olsalazine (Disodium)],6%,12
